Measured values published in patent US7462600B2, “Macrolides” (Pfizer Inc, priority 2004, dated 2008).
Values after ≈ are worked out from the molar mass of the structure shown.

Assays:
Type in all cases: cell-based
[1] = test system: Streptococcus pneumoniae 1175; settings: S. pneumoniae 1175 (mefA); microtiter broth dilution
In short: (§1)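 Where available, resistant strains were tested alongside the susceptible parent they derive from. The MIC, determined by tray-based broth dilution and NCCLS M100-S14 interpretation, served as the comparison value.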

[2] = test system: Streptococcus pneumoniae 1095; settings: S. pneumoniae 1095 (ermB); microtiter broth dilution
In short: as §1

[3] = test system: Haemophilus influenzae 1218; test: MIC, microtiter broth dilution (NCCLS M100-S14), H. influenzae 1218 (susceptible); settings: H. influenzae 1218 (susceptible)
In short: as §1

[4] = test system: Streptococcus pyogenes 1079; test: MIC, microtiter broth dilution (NCCLS M100-S14), S. pyogenes 1079 (ermB); settings: S. pyogenes 1079 (ermB)
In short: as §1

[5] = test system: Streptococcus pneumoniae 1016; test: MIC, microtiter broth dilution (NCCLS M100-S14), S. pneumoniae 1016 (susceptible); settings: S. pneumoniae 1016 (susceptible)
In short: as §1

| SMILES | MIC S. pneumo. 1175 [1] [µg/mL] | MIC S. pneumo. 1095 [2] [µg/mL] | MIC H. influenzae 1218 [3] [µg/mL] | MIC S. pyogenes 1079 [4] [µg/mL] | MIC S. pneumo. 1016 [5] [µg/mL] |
| --- | --- | --- | --- | --- | --- |
| CCC1OC(=O)C(C)(F)C(=O)C(C)C(OC2OC(C)CC(N(C)C)C2O)C(C)(OC)CC(C)C(=O)C(C)C2N(CC3CCCN3C(=O)c3cc4ccccn4n3)C(=O)OC12C (stereo not shown) [10.28] | 0.12 (≈ 0.14 µM) | <0.06 | 1 (≈ 1.17 µM) | 16 (≈ 18.6 µM) | <0.06 |
| CCC1OC(=O)C(C)(F)C(=O)C(C)C(OC2OC(C)CC(N(C)C)C2O)C(C)(OC)CC(C)C(=O)C(C)C2N(CC3CCCN3C(=O)c3nccc4ccccc34)C(=O)OC12C (stereo not shown) [10.29] | 0.12 (≈ 0.138 µM) | <0.06 | 2 (≈ 2.3 µM) | 16 (≈ 18.4 µM) | <0.06 |
| CCC1OC(=O)C(C)(F)C(=O)C(C)C(OC2OC(C)CC(N(C)C)C2O)C(C)(OC)CC(C)C(=O)C(C)C2N(CC3CCCN3C(=O)c3ccc4cccnc4n3)C(=O)OC12C (stereo not shown) [10.30] | 0.12 (≈ 0.138 µM) | <0.06 | 2 (≈ 2.3 µM) | 32 (≈ 36.8 µM) | <0.06 |
| CCC1OC(=O)C(C)C(=O)C(C)C(OC2OC(C)CC(N(C)C)C2O)C(C)(OC)CC(C)C(=O)C(C)C2N(CC3CCCN3C(=O)c3ccc4[nH]ncc4c3)C(=O)OC12C (stereo not shown) [10.32] | 0.5 (≈ 0.595 µM) | <0.06 | 1 (≈ 1.19 µM) | >64.00 | <0.06 |
| CCC1OC(=O)C(C)C(=O)C(C)C(OC2OC(C)CC(N(C)C)C2O)C(C)(OC)CC(C)C(=O)C(C)C2N(CC3CCCN3C(=O)c3cccc4nccnc34)C(=O)OC12C (stereo not shown) [10.33] | 0.25 (≈ 0.293 µM) | <0.06 | 2 (≈ 2.35 µM) | >64.00 | <0.06 |
| CCC1OC(=O)C(C)C(=O)C(C)C(OC2OC(C)CC(N(C)C)C2O)C(C)(OC)CC(C)C(=O)C(C)C2N(CC3CCCN3C(=O)c3cc4ccncc4[nH]3)C(=O)OC12C (stereo not shown) [10.34] | 0.12 (≈ 0.143 µM) | 0.12 (≈ 0.143 µM) | 2 (≈ 2.38 µM) | >64.00 | <0.06 |
| CCC1OC(=O)C(C)C(=O)C(C)C(OC2OC(C)CC(N(C)C)C2O)C(C)(OC)CC(C)C(=O)C(C)C2N(CC3CCCN3C(=O)c3cccn(Cc4ccccc4)c3=O)C(=O)OC12C (stereo not shown) [10.36] | 0.5 (≈ 0.551 µM) | 4 (≈ 4.41 µM) | 16 (≈ 17.6 µM) | >64.00 | <0.06 |
| CCC1OC(=O)C(C)C(=O)C(C)C(OC2OC(C)CC(N(C)C)C2O)C(C)(OC)CC(C)C(=O)C(C)C2N(CC3CCCN3C(=O)c3cccc4ccncc34)C(=O)OC12C (stereo not shown) [10.37] | <0.06 | <0.06 | 0.5 (≈ 0.588 µM) | 16 (≈ 18.8 µM) | <0.06 |
| CCC1OC(=O)C(C)C(=O)C(C)C(OC2OC(C)CC(N(C)C)C2O)C(C)(OC)CC(C)C(=O)C(C)C2N(CC3CCCN3C(=O)c3cnc4ncccc4c3)C(=O)OC12C (stereo not shown) [10.38] | 0.5 (≈ 0.587 µM) | <0.06 | 1 (≈ 1.17 µM) | >64.00 | <0.06 |
| CCC1OC(=O)C(C)C(=O)C(C)C(OC2OC(C)CC(N(C)C)C2O)C(C)(OC)CC(C)C(=O)C(C)C2N(CC3CCCN3C(=O)c3cc4cccnc4nc3C)C(=O)OC12C (stereo not shown) [10.39] | 0.5 (≈ 0.577 µM) | <0.06 | 2 (≈ 2.31 µM) | >64.00 | <0.06 |
| CCC1OC(=O)C(C)C(=O)C(C)C(OC2OC(C)CC(N(C)C)C2O)C(C)(OC)CC(C)C(=O)C(C)C2N(CC3CCCN3C(=O)c3cc4cccnc4nc3C(F)(F)F)C(=O)OC12C (stereo not shown) [10.40] | <0.06 | <0.06 | 2 (≈ 2.17 µM) | >64.00 | <0.06 |
